Where two headings read alike, the source gives them in different places.
How the values were obtained:
[1] = Pharmacokinetic test, oral, SD rats; type: in vivo; settings: oral 10 mg/kg
Method: Each test compound was administered orally (10 mg/kg, 3 rats in each group) to SD rats for pharmacokinetic study. […] Animals were fasted overnight before oral administration, and fed again after 4 h of administration. […] At each collection time point, 3 whole blood samples were collected at a the collection volume of about 0.2-0.3 mL. […] The collected plasma was stored at −20° C. before analysis. 20 μL of plasma sample was added into a 1.6 mL 96-well deep-well plate, added with 200 μL of working internal standard solution (the same volume of vehicle was added to the blank instead of internal standard), vortexed for 1 min, and centrifuged at 5800 rpm for 10 min. 100 μL of the supernatant was added to a 96-well injection plate for LC-MS/MS analysis.

[2] = Liver microsome metabolic stability test (human); type: in vitro ADME; settings: liver microsomes, read-out: CLint (μL/min/mg) Human
Method: (§1) 1: To the sample wells of T0, T5, T10, T20, T30, T60 and NCF60, 10 μL of the test or reference working solution and 80 μL of microsome working solution (hepatic microsome with a protein concentration of 0.5 mg/mL) were added, and to Blank60 well, only the microsome working solution was added. Then samples of the Blank60, T5, T10, T20, T30 and T60 other than TO and NCF60 were placed in a 37° C. water bath and pre-incubated for about 10 min.
(§2) 2: To the TO sample well, 300 μL of stop solution (containing 200 ng/mL tolbutamide and 200 ng/mL labetalol in acetonitrile solution) was added first, followed by 10 μL of NADPH regeneration system working solution.
(§3) 3: After the pre-incubation of Blank60, T5, T10, T20, T30 and T60 incubation plates, 10 μL of NADPH regeneration system working solution was added to each sample well to start the reaction, and 10 μL of 100 mM potassium phosphate buffer was added to the NCF60 sample well.
(§4) 4: After incubation for an appropriate time (such as 5, 10, 20, 30 and 60 min), to each test sample well and control well of the Blank60, T5, T10, T20, T30, T60 and NCF60 plates, 300 μL of stop solution was added to terminate the reaction.
(§5) 5: All sample plates were shaken to mix well and centrifuged at 4000 rpm for 20 min, and 100 μL of the supernatant of the test sample or control sample was taken and diluted with 300 μL of pure water for LC-MS/MS analysis.
(§6) 6: Data analysis: T1/2 and CLint(mic) (μL/min/mg) values were calculated according to the first-order elimination kinetics. The first-order elimination kinetics equation was: […]

DOHH2 cell proliferation = test: In vitro cell proliferation inhibitory activity test (CTG), DOHH2; type: cell-based; settings: Homo sapiens, DOHH-2
Method: (§7) Test Example 4: In Vitro Cell Proliferation Inhibitory Activity Test
(§8) Cells were cultured in 1640 medium, added with 10% inactivated FBS and 1% double antibiotics, and cultured at 37° C. and 5% CO2.
(§9) (1) Cells were routinely cultured until the cell density was 80%-90%, and the cells were harvested when their number reached the requirement.
(§10) (2) Cells were resuspended with corresponding culture medium, counted, and prepared into cell suspension at appropriate density.
(§11) (3) The cell suspension was added to a 96-well plate, 100 μL per well.
(§12) (4) Cells were cultured overnight in a 37° C., 5% CO2 incubator.
(§13) (1) The compounds to be tested were diluted with DMSO to make a stock solution with a final concentration of 20 mM for later use.
(§14) (2) The stock solution was diluted 10 times from 20 mM to 2 mM with DMSO, and then diluted 3 times from 2 mM to 9 concentrations.
(§15) (3) The blank control wells were cells plus 0.5% DMSO, as high-reading control wells.
(§16) (4) Wells with no cells and only medium were used as low-reading control wells.
(§17) 4: Cell treatment with compound
(§18) (1) 24 h after the cells were plated, the compounds acted alone, and 99 μL of growth medium was added to each well, followed by 1 μL of the compound prepared in step 3. The plate was shaken gently to mix uniformly, and then placed in a 37° C., 5% CO2 incubator.
(§19) (2) The cell plate was placed in an incubator for 72 h.
(§20) 5: Detection by CTG method
(§21) (1) The cell plate to be tested was placed at room temperature for 30 min, and 100 μL of medium was discarded from each well.
(§22) (2) 100 μL of CTG reagent (CelltiterGlo kit) was added to each well, placed on a fast shaker for 2 min, and stood at room temperature in the dark for 30 min.
(§23) (3) The chemiluminescent signal value was read with the Envision instrument.
(§24) IC50 was calculated by using GraphPad Prism 8 software. The IC50 (half inhibitory concentration) of the compound was derived using the following nonlinear fitting formula, and the results are shown in the following table:
(§25) Y=Bottom+(Top−Bottom)/(1+10^((Log IC50−X)×HillSlope))
(§26) X: log value of compound concentration, Y: inhibition rate (% inhibition)
(§27) Inhibition rate (% inhibition)=(reading of high-reading control well-reading of compound well)/(reading of high-reading control well-reading of low-reading control well)×100

[3] = system: TMD8 mouse subcutaneous xenograft tumor; test: TMD8 pharmacodynamic model test; type: in vivo; settings: same dose of 10 mg/kg, FIG. 1
Method: Test Example 7: TNMD8 Pharmacodynamic Model Test
Human diffuse large B-cell lymphoma TMD8 cells were monolayer-cultured in vitro in RPNHI1640 medium with […], 100 U/mL penicillin and 100 μg/mL streptomycin, in a 37° C., […] incubator. Routine digestion with trypsin-EDTA was performed twice a week for passaging. When the cell density was […] and the number reached the requirement, cells were harvested, counted and inoculated. 0.2 ml (1×10^7 cells) of TMVD8 cells (added with matrigel at a volume ratio of 1:1) were subcutaneously inoculated on the right back of each mouse. The mice were administered in groups when the average tumor volume reached about 137 mm^3. Tumor diameters were measured twice a week with vernier calipers. The tumor volume was calculated by the formula V=0.5 a×b^2, where a and b represent the long and short diameters of the tumor, respectively.

[4] = Liver microsome metabolic stability test (rat); type: in vitro ADME; settings: liver microsomes, read-out: CLint (μL/min/mg) Rat
Method: as §1, §2, §3, §4, §5, §6

TMD8 cell proliferation = test: In vitro cell proliferation inhibitory activity test (CTG), TMD8; type: cell-based; settings: Homo sapiens, TMD8, 72 h, TMD8 cells
Method: as §7, §8, §9, §10, §11, §12, §13, §14, §15, §16, §17, §18, §19, §20, §21, §22, §23, §24, §25, §26, §27

[5] = system: NCI-N87 cell proliferation; test: In vitro cell proliferation inhibitory activity test (CTG), NCI-N87; type: cell-based; settings: Homo sapiens
Method: as §7, §8, §9, §10, §11, §12, §13, §14, §15, §16, §17, §18, §19, §20, §21, §22, §23, §24, §25, §26, §27

BT474 cell proliferation = test: In vitro cell proliferation inhibitory activity test (CTG), BT474; type: cell-based; settings: Homo sapiens, BT-474, BT474 cell proliferation
Method: as §7, §8, §9, §10, §11, §12, §13, §14, §15, §16, §17, §18, §19, §20, §21, §22, §23, §24, §25, §26, §27

[6] = Blood-brain barrier permeability test, oral, SD rats; type: in vivo; settings: rat, oral 10 mg/kg single dose; for concentration at 1 h / Kp at 1 h: time point 1 h; for concentration at 4 h / Kp at 4 h: time point 4 h
Method: Test Example 6: Blood-Brain Barrier Permeability Test
Each test compound was administered orally at a single dose of 10 mg/kg to SD rats for pharmacokinetic study. Each group included 9 rats. The test compound was dissolved in 5% DMSO+10% solutol+85% saline, vortexed for 1-2 min, and ultrasonicated for 5-10 min to prepare into a colorless, transparent and clear administration solution. Animals were fasted overnight before administration. 1 h, 2 h, and 4 h after administration, three SD rats were selected from each group to take about 0.2-0.3 mL of blood through their orbit. The blood sample was placed on ice once collected, and centrifuged to separate the plasma within 15 min (centrifugation conditions: 8000 rpm, 1 min, room temperature). The collected plasma was stored at −20° C. before analysis. Immediately after blood collection, the cerebrospinal fluid and brain tissue were collected. The cerebrospinal fluid was draw out by dural puncture with a micro-sampler syringe under direct vision. Namely, about 100 μl of cerebrospinal fluid was collected with a 100 μl micro sample syringe from the rat that was anesthetized by chloral hydrate, with the head-fixed, the back hair-cut off, a transverse incision (2 cm) made at the line connecting the roots of the two ears, and the muscle layer of the neck and skull base bluntly scraped to expose the foramen magnum. The cerebrospinal fluid was stored at −20° C. before analysis. The rat then was sacrificed immediately, with its head cut off. The dissected brain tissue, with the surface capillaries peeled off, was weighed, added with 3 times the amount of cold saline, homogenized by a homogenizer for 1 min, and stored at −20° C. before analysis. 20 μL of plasma sample and brain homogenate sample was respectively added into 200 μL of working internal standard solution (the same volume of vehicle was added to the blank instead of internal standard), vortexed for 1 min, and centrifuged at 13500 rpm for 10 min. 100 μL of the supernatant was taken and analyzed by LC-MS/MS. 20 μL of the cerebrospinal fluid was added into 60 μL of working internal standard solution (the same volume of vehicle, instead of internal standard, was added to the blank), vortexed for 1 min, and centrifuged at 13500 rpm for 10 min. 50 μL of the supernatant was taken and analyzed by LC-MS/MS.

HER2 kinase = HER2 kinase (Homo sapiens, UniProt P04626); test: HER2 kinase activity test (HTRF); type: biochemical
Method: Test Example 5: HER2 Kinase Activity Test
1. Her2 Kinase test steps
2) 100 nl of the diluted compound working solution was transferred into each well of a reaction plate (784075, Greiner) by an Echo 550 liquid hander. The reaction plate was sealed with a sealing film and centrifuged at 1000 g for 1 min.
3) 1 ng/μL Her2 kinase solution was prepared with 1× kinase reaction buffer.
4) 5 μL of the kinase solution prepared above was added to each well of the reaction plate. The plate was sealed with a sealing film, centrifuged at 1000 g for 1 min, and placed at room temperature for 10 min.
5) A mixture of 2× kinase substrate and ATP was prepared by using 1× kinase reaction buffer, and the 2× Her2 kinase substrate was 2 μM TK-substrate-biotin and 4 μM ATP
6) 5 μL of the mixture of 2× TK-substrate-biotin and ATP was added to the reaction plate, centrifuged at 1000 g for 30 seconds to start the reaction.
7) Her2 kinase test was performed at room temperature for 50 min of reaction.
9) 10 μL of the mixture of Sa-XL 665 and TK-antibody-Cryptate was added to each well, centrifuged at 1000 g for 30 seconds, and reacted at room temperature for 1 h.
10) The fluorescence signals at 615 nm (Cryptate) and 665 nm (XL665) were read by Envision 2104.
1) The percentage inhibition was calculated as follows: […]
Ratiopositive control: average value of Ratio 665/615 nm of all positive control wells in the plate.
Rationegative control: average value of Ratio 665/615 nm of all negative control wells in the plate.
2) Calculation of IC50 and fitting of dose-effect curve of compound:
The IC50 of the compound was derived using the following nonlinear fitting formula with GraphPad 6.0.
Y=Bottom+(Top−Bottom)/(1+10^((Log IC50−X)×HillSlope)).
X: log value of compound concentration; Y: percentage inhibition of compound

[7] = brain, read-out: Drug concentration in brain tissue
[8] = brain/plasma, read-out: Brain tissue/plasma
[9] = cerebrospinal fluid, read-out: Drug concentration in cerebrospinal fluid
[10] = cerebrospinal fluid/plasma, read-out: Cerebrospinal fluid/plasma
[11] = plasma, read-out: Plasma drug concentration

Chain of HER2 kinase (P04626 23-1255): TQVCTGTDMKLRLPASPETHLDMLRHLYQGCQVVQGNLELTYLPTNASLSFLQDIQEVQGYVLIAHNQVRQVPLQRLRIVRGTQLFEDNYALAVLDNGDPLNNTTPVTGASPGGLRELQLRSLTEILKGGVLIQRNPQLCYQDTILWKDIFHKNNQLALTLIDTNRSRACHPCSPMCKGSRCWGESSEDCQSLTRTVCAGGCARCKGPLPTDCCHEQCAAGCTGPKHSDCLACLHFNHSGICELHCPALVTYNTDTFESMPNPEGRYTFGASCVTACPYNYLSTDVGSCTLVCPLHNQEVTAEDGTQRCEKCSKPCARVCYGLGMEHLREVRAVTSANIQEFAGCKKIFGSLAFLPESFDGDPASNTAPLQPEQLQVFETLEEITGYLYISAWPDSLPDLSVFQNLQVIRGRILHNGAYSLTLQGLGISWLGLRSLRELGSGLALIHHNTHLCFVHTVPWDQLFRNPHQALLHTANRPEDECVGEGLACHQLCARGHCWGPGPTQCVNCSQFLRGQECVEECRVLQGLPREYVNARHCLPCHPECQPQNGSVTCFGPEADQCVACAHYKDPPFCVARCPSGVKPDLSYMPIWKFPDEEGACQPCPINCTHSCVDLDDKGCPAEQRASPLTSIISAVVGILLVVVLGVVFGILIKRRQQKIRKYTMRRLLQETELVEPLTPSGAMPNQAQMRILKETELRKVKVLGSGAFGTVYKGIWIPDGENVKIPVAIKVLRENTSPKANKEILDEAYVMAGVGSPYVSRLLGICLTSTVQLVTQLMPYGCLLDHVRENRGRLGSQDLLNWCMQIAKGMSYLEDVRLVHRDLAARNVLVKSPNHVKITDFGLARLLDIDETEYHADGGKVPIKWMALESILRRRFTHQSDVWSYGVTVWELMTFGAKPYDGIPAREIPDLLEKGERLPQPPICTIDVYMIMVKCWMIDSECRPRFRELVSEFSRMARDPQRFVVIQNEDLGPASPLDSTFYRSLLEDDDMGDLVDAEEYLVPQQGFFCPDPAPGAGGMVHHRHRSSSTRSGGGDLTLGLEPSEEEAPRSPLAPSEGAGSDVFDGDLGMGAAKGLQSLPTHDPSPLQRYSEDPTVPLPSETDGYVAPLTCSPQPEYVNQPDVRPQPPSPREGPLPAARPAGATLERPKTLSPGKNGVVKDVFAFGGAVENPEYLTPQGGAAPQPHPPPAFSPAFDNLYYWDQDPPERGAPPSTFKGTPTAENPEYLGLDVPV

Row | SMILES | Cl [1] [mL/min/kg] | microsomal CLint [2] [µL/min/mg] | IC50 (DOHH2 cell proliferation) [nM] | inhibitory effect against the tumor compared with ARQ-531 and ibrutinib [3] | microsomal CLint [4] [µL/min/mg] | IC50 (TMD8 cell proliferation) [nM] | IC50 [5] [nM] | IC50 (BT474 cell proliferation) [nM] | concentration at 1 h [6, 7] [ng/g] | concentration at 4 h [6, 7] [ng/g] | Kp at 1 h [6, 8] | Kp at 4 h [6, 8] | concentration at 1 h [6, 9] [ng/mL] | concentration at 4 h [6, 9] [ng/mL] | Kp at 1 h [6, 10] | Kp at 4 h [6, 10] | concentration at 1 h [6, 11] [ng/mL] | concentration at 4 h [6, 11] [ng/mL] | IC50 (HER2 kinase) [nM]
1 | Nc1nccn2c(C34CCC(CO)(CC3)OC4)nc(-c3ccc(C(=O)Nc4cc(C(F)(F)F)ccn4)cc3)c12 [Example 118] | 0.8 | < 9.6 | 250 | significantly better inhibitory effect against the tumor than the clinical phase II drug ARQ-531 and the marketed drug ibrutinib | 13.7 | 23.8 | – | – | – | – | – | – | – | – | – | – | – | – | –
2 | Nc1nccn2c(C34CCC(CO)(CC3)OC4)nc(-c3ccc(C(F)(F)c4cccc(F)c4)cc3)c12 [Example 142] | – | – | – | – | – | – | 106 | 153 | – | – | – | – | – | – | – | – | – | – | –
3 | Nc1nccn2c(C34CCC(CO)(CC3)OC4)nc(-c3ccc(C(F)(F)c4cccc(F)c4Cl)cc3)c12 [Example 146] | – | – | – | – | – | – | 82 | 86.9 | 296 | 410 | 0.78 | 1.1 | 27.4 | 34.3 | 0.072 | 0.092 | 380 | 373 | 3.92

Reference: patent publication US20230257383A1, “COMPOUND SERVING AS BTK INHIBITOR, PREPARATION METHOD THEREFOR, AND USE THEREOF” (CHENGDU HYPERWAY PHARMACEUTICALS CO., LTD., priority 2020, published 2023)
